In paper PMC8621770, “New Compounds with Bioisosteric Replacement of Classic Choline Kinase Inhibitors Show Potent Antiplasmodial Activity” (Pharmaceutics, 2021):
Where two headings read alike, the source gives them in different places.

Columns and labels:
PfCK = biological target: T1, PfCK (Plasmodium falciparum, UniProt Q8IM71); assay: Spectrophotometric coupled enzymatic assay for PfCK activity (substrate choline); assay type: biochemical; conditions: for remaining activity at 25 µM: read-out: PfCK Fractional Activity at 25 µM; for IC50: IC50 PfCK b (compound concentration required to inhibit PfCK enzyme by 50%), substrate choline 4 mM, ATP 2 mM
T1 construct: A truncated form of PfCK (Δ79-440) featuring an N-terminal 6× His-tag; 6xHis (N); host or cells: Escherichia coli BL21 (DE3) Star
T1 sequence (Q8IM71 entry or part of it): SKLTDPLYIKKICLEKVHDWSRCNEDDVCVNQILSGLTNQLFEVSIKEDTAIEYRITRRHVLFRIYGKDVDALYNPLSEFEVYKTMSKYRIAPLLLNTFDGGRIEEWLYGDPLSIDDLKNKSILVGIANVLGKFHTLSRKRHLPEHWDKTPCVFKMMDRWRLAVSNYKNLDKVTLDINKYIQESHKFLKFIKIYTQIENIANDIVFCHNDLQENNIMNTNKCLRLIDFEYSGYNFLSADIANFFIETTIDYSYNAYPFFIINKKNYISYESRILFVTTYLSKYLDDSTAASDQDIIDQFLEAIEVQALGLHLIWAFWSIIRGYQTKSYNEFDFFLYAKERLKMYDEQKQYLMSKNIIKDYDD
Experimental: A truncated form of PfCK (Δ79-440) featuring an N-terminal 6× His-tag was purchased from Genescript (Piscataway, NJ, USA), cloned into a pET-28a vector and transformed into Escherichia coli BL21 (DE3) Star cells (Invitrogen, Carlsbad, CA, USA). The transformed bacteria were cultured in Luria-Bertani (LB) medium at 37 °C until OD600 = 0.6 and the expression was induced with 1 mM isopropyl β-D-1-thiogalactopyranoside (IPTG). The cell culture was grown overnight at 20 °C and 180 rpm. Cells were pelleted by centrifugation at 10,000 rpm, resuspended in 50 mM Tris/HCl pH 7.5, 500 mM NaCl, 0.2 mM phenylmethylsulphonyl fluoride (PMSF, Sigma Aldrich, St. Luis, MO, USA), DNase (Sigma Aldrich, St. Luis, MO, USA), 0.5 mM β-mercaptoethanol (Sigma Aldrich, St. Luis, MO, USA) and sonicated. Separation of the soluble from the insoluble fraction was obtained by centrifugation at 15,000 rpm and 4 °C. The target enzyme was purified by a two-step purification protocol. In the first step, the cell lysate was incubated for 45 min with Ni-NTA resin (Qiagen, Venlo, The Netherlands) in a gravity column. Then, the column was washed with 40 column volumes (CV) of 50 mM Tris/HCl pH 7.5, 300 mM NaCl, 10 mM imidazole and 1 CV of 50 mM Tris/HCl pH 7.5, 300 mM NaCl, 40 mM imidazole. Finally, the His-tagged enzyme was eluted from the column using a 50 mM Tris/HCl pH 7.5, 300 mM NaCl, 400 mM imidazole buffer. A subsequent size-exclusion chromatography step was implemented to further polish the sample using a HiPrep 26/60 Sephacryl 100 HR column (GE Healthcare, Little Chalfont, Buckinghamshire, UK) previously equilibrated with 20 mM Tris/HCl pH 7.5, 150 mM NaCl buffer. This second purification step afforded a pure protein sample. The protein production yield was estimated to be nearly 2.5 mg of recombinant enzyme per liter of bacterial culture.
A spectrophotometric 96-well plate assay for PfCK activity was established based on an assay previously described. The reaction mix was composed as follows: 100 mM Tris/HCl pH 7.5, 100 mM KCl, 10 mM MgCl2, 0.5 mM phosphoenolpyruvate, 0.25 mM NADH, 4 U of pyruvate kinase, 5 U lactate dehydrogenase, 2 mM ATP, 4 mM choline chloride and different concentrations of the selected compounds. All the necessary compounds for the assay were purchased from Sigma Aldrich (St. Luis, MO, USA) and the final assay volume was 200 μL. The enzymatic reaction was initiated by the addition of the enzyme at less than 10 nM concentration and the reaction rates were measured by monitoring the decrease in the absorbance at 340 nm for 20 min at room temperature using a Spark10M instrument (Tecan). Finally, the IC50 values for each compound were determined by plotting the enzyme fractional activity (f.a.) against the logarithm of compound concentration (log[I]). Curve-fitting was performed with a dose-response curve from Origin (OriginLab Corporation, Northampton, MA, USA), using the following equation: f.a.=1/1+10^logIC50−logI
All data points were collected in triplicate and the final dose-response curves were plotted with MATLAB (R2018a (9.4.0.813654), 2018, MathWorks, Natick, MA, USA). See curves in Figure S1 in Supplementary Materials.

P. falciparum strain 3D7 = assay: Antimalarial activity, P. falciparum lactate dehydrogenase growth inhibition assay; assay type: cell-based, Plasmodium falciparum; conditions: for IC50: Plasmodium falciparum
Experimental: Parasites of the P. falciparum strain 3D7 were grown in fresh group 0 positive human erythrocytes, obtained from the Centro Regional de Transfusion Sanguínea-SAS (Granada, Spain) and suspended at 5% haematocrit in RPMI 1640 containing 2% human serum, 0.2% NaHCO3, 0.5% Albumax II, 150 μM hypoxanthine, and […] gentamicin. Flasks were incubated at 37 °C, under 5% CO2 and 95% air mixture. […] The stock culture was then diluted with complete medium and non-parasitized erythrocytes to yield a haematocrit of 2% and parasitemia of 0.25%. Stock solutions of the test drugs were prepared at an initial concentration of 200 mM in DMSO, serially diluted and dispensed into triplicate in 96-well plates to yield final concentrations ranging from 0.0039 to 2 μM. The final well volume was 200 μL with a final concentration of DMSO 0.001%. Each plate also included positive growth controls, where only medium were added, and negative growth controls with 100 nM of chloroquine. […] A multidrop dispenser was used to add 50 μL of synchronized parasite culture per well. After 72 h of growth in presence of test compounds, the plates were stored frozen at −20 °C for at least 24 h. Next, they were thawed at room temperature. Parasite growth inhibition assays and IC50 determinations were carried out following the P. falciparum lactate dehydrogenase assay where parasite viability is quantified by measuring LDH activity upon APAD+ addition, a cofactor that is specific to the Plasmodium enzyme. To evaluate LDH activity, 140 μL of freshly made reaction mix, containing 143 mM sodium L-lactate, 143 μM APAD, 178.75 μM NBT, 1 U/mL diaphorase, 0.7% Tween 20 and 100 mM Tris-HCl (pH 8.0) were dispensed into plates. After 10 min of incubation in the dark at room temperature, absorbance was measured at 630 nm with a vmax precision multiwell plate reader from Molecular Devices, by using the accompanying SOFT maxPro software for analysis.

[1] = Erythrocyte, P. falciparum 3D7 in human erythrocytes, 72 h, LDH readout, read-out: IC50 a (In vitro IC50 values against P. falciparum)

| SMILES | remaining activity at 25 µM (PfCK) [%] | melting point [°C] | IC50 (P. falciparum strain 3D7; [1]) [nM] | IC50 (PfCK) [nM] | IC50 (P. falciparum strain 3D7; 3D7, Erythrocyte, 72 h, read-out: IC50 a (In vitro IC50 values against P. falciparum)) [nM] | IC50 (P. falciparum strain 3D7; 3D7, Erythrocyte, infected erythrocytes, P. falciparum, read-out: antimalarial activity (IC50), as given in the text) [nM] | fold decrease in antimalarial activity with respect to the reference compounds BR-23 / BR-25 (P. falciparum strain 3D7; Fg-9, Fa-21, Fg-14 vs BR-23, Ff-1, Ff-7, Ff-3 vs BR-25) [fold] |
| --- | --- | --- | --- | --- | --- | --- | --- |
| [Br-].[Br-].c1cc2c(s1)c(N1CCCCCC1)nc[n+]2Cc1ccc(-c2ccc(C[n+]3cnc(N4CCCCCC4)c4sccc43)cn2)nc1 [Fa-26, 1,1’-([2,2’-bipyridine]-5,5’-diylbis(methylene))bis(4-(azepan-1-yl)thieno[3,2-d]pyrimidin-1-ium) bromide] | 78 ± 8.13 | 310 to 312 | 209 |  |  |  |  |
| [Br-].[Br-].c1cc2c(s1)c(N1CCCCC1)nc[n+]2Cc1ccc(-c2ccc(C[n+]3cnc(N4CCCCC4)c4sccc43)cn2)nc1 [Fa-27, 1,1’-([2,2’-bipyridine]-5,5’-diylbis(methylene))bis(4-(piperidin-1-yl)thieno[3,2-d]pyrimidin-1-ium) bromide] | 82.6 ± 4.9 | 307 to 309 | 120 |  |  |  |  |
| [Br-].[Br-].c1cc2c(s1)c(N1CCCCC1)nc[n+]2Cc1ccc(OCCOc2ccc(C[n+]3cnc(N4CCCCC4)c4sccc43)cc2)cc1 [Fa-28, 1,1′-(((ethane-1,2-diylbis(oxy))bis(4,1-phenylene))bis(methylene))bis(4-(piperidin-1-yl)thieno[3,2-d]pyrimidin-1-ium) bromide] | 84.4 ± 7.53 | 198 to 200 | 47.1 |  |  |  |  |
| [Br-].[Br-].c1cc2c(s1)c(N1CCCCCC1)nc[n+]2Cc1ccc(CCCCc2ccc(C[n+]3cnc(N4CCCCCC4)c4sccc43)cc2)cc1 [Fa-29, (1,1’((butane1,4diylbis(4,1phenylene))bis(methylene))bis(4-(azepan-1-yl)thieno[3,2-d]pyrimidin-1-ium)) bromide] | 46.7 ± 9.49 | 268 to 270 |  | 4640 ± 200 | 55.6 |  |  |
| [Br-].[Br-].c1cc2c(s1)c(N1CCCCC1)nc[n+]2Cc1ccc(CCCCc2ccc(C[n+]3cnc(N4CCCCC4)c4sccc43)cc2)cc1 [Fa-33, 1,1’-((butane-1,4-diylbis(4,1-phenylene))bis(methylene))bis(4-(piperidin-1-yl)thieno[3,2-d]pyrimidin-1-ium) bromide] | 68.8 ± 6.03 | 276 to 278 | 43.9 |  |  |  |  |
| [Br-].[Br-].c1cc2c(s1)c(N1CCCC1)cc[n+]2Cc1ccc(OCCOc2ccc(C[n+]3ccc(N4CCCC4)c4sccc43)cc2)cc1 [Ff-2, 4,4’-(((ethane-1,2-diylbis(oxy))bis(4,1-phenylene))bis(methylene))bis(7-(pyrrolidin-1-yl)thieno[3,2-b]pyridin-4-ium) bromide] | 81.8 ± 3.93 | 280 to 282 | 74 |  |  |  |  |
| [Br-].[Br-].c1cc2c(N3CCCC3)nc[n+](Cc3ccc(OCCOc4ccc(C[n+]5cnc(N6CCCC6)c6ccsc65)cc4)cc3)c2s1 [Ff-4, 1,1’-(((ethane-1,2-diylbis(oxy))bis(4,1-phenylene))bis(methylene))bis(4-(pyrrolidin-1-yl)thieno[2,3-d]pyrimidin-1-ium) bromide] | 90.7 ± 4.57 | 193 to 195 | 11.5 | 37400 ± 3240 |  | ~11 |  |
| [Br-].[Br-].c1cc2c(N3CCCCC3)nc[n+](Cc3ccc(OCCOc4ccc(C[n+]5cnc(N6CCCCC6)c6ccsc65)cc4)cc3)c2s1 [Ff-5, 1,1′-(((ethane-1,2-diylbis(oxy))bis(4,1-phenylene))bis(methylene))bis(4-(piperidin-1-yl)thieno[2,3-d]pyrimidin-1-ium) bromide] | 91.1 ± 4.27 | > 280 | 22.4 |  |  |  |  |
| [Br-].[Br-].c1cc2c(s1)c(N1CCCC1)nc[n+]2Cc1ccc(CCCCc2ccc(C[n+]3cnc(N4CCCC4)c4sccc43)cc2)cc1 [Ff-7, 1,1’-((butane-1,4-diylbis(4,1-phenylene))bis(methylene))bis(4-(pyrrolidin-1-yl)thieno[3,2-d]pyrimidin-1-ium) bromide] | 55 ± 4.07 | 215 to 217 | 21.9 | 13300 ± 3820 |  |  | 10 |
| [Br-].[Br-].c1cc2c(s1)c(N1CCCC1)nc[n+]2Cc1ccc(OCCOc2ccc(C[n+]3cnc(N4CCCC4)c4sccc43)cc2)cc1 [Ff-8, 1,1’-(((ethane-1,2-diylbis(oxy))bis(4,1-phenylene))bis(methylene))bis(4-(pyrrolidin-1-yl)thieno[3,2-d]pyrimidin-1-ium) bromide] | 63.1 ± 6.74 | 217 to 219 | 35.2 |  |  |  |  |
| [Br-].[Br-].c1cc2c(N3CCCCCC3)nc[n+](Cc3ccc(CCCCc4ccc(C[n+]5cnc(N6CCCCCC6)c6ccsc65)cc4)cc3)c2s1 [Ff-35, (1,1’((butane1,4diylbis(4,1phenylene))bis(methylene))bis(4-(azepan-1-yl)thieno[2,3-d]pyrimidin-1-ium)) bromide] | 57.6 ± 12.3 | 117 to 119 | 48.4 |  |  |  |  |
| [Br-].[Br-].c1cc2c(s1)c(N1CCCC1)cc[n+]2Cc1ccc(CCc2ccc(C[n+]3ccc(N4CCCC4)c4sccc43)cc2)cc1 [Fg-11, 4,4’-((ethane-1,2-diylbis(4,1-phenylene))bis(methylene))bis(7-(pyrrolidin-1-yl)thieno[3,2-b]pyridin-4-ium) bromide] | 33 ± 1.48 | 253 to 255 | 232 | 16500 ± 1430 |  |  |  |
| [Br-].[Br-].c1cc2c(N3CCCCCC3)nc[n+](Cc3ccc(CCc4ccc(C[n+]5cnc(N6CCCCCC6)c6ccsc65)cc4)cc3)c2s1 [Fg-19, 1,1’-((ethane-1,2-diylbis(4,1-phenylene))bis(methylene))bis(4-(azepan-1-yl)thieno[2,3-d]pyrimidin-1-ium) bromide] |  | 298 to 300 | 71.5 |  |  |  |  |
